In US20190322676A1, “CERAMIDE GALACTOSYLTRANSFERASE INHIBITORS FOR THE TREATMENT OF DISEASE” (BioMarin Pharmaceutical Inc., priority 2016, published 2019) one finds IC50 data, which are given here for 14 molecules.

SMILES strings stand for the structures. Counter-ions that a name gives are not always drawn. Where only a bound is given, the exact number is not on record here.

The IC50 is the midpoint of a concentration-inhibition curve. A high value points to weaker potency in that assay.

The assay concerns the target T1, human CGT (ceramide galactosyltransferase), CHO/CGT lysate (Homo sapiens, UniProt Q16880).
T1 construct: Full-length human CGT cDNA was cloned into the BamH1/Xho1 site of pcDNA3.1 (+); expressed in transfected cells; host or cells: Chinese hamster ovary (CHO) cells; lysate prepared with M-PER
T1 sequence (Q16880 21-541): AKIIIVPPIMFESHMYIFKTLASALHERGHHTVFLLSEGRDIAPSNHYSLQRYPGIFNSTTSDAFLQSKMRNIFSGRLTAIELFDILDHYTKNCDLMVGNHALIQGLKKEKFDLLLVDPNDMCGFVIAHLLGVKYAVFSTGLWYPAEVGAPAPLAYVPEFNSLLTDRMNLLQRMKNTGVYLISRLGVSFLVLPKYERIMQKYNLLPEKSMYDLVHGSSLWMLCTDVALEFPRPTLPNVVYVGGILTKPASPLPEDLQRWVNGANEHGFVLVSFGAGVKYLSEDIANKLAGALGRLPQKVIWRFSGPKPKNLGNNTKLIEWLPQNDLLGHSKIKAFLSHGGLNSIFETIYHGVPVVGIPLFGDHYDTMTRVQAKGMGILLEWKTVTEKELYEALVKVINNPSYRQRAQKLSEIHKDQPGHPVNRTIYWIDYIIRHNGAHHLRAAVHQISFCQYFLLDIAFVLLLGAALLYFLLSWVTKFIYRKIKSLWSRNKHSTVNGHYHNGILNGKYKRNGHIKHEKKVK
Briefly: CGT enzyme assay, RapidFire/MS/MS readout with 0.01% Tween added (Table 1 ranges with two asterisks **). The note with it: CGT enzymatic assay; range with two asterisks (**): RapidFire/MS/MS method with 0.01% Tween added. The class given is biochemical. The method, then:
Full-length human CGT cDNA was cloned into the BamH1/Xho1 site of pcDNA3.1 (+) mammalian expression vector (V90-20, Invitrogen, Carlsbad, Calif.) and the plasmid was transfected into Chinese hamster ovary (CHO) cells. Lysate was prepared using M-PER (Mammalian Protein Extraction Reagent, ThermoFisher Scientific, Grand Island, N.Y.) in the presence of a protease inhibitor cocktail (P8340, Sigma, Saint Louis, Mo.). Each 100 mm dish (100% confluent, approximately 1×10^7 cells) was lysed with 250 μL of M-PER containing protease inhibitors. Protein concentration was determined using a Pierce BCA protein assay kit (ThermoFisher Scientific). Four micrograms of CHO/CGT lysate was incubated with various concentrations of a compound (0.001 μM-50 μM) in 10 mM HEPES (pH 7.2) containing 35 μM dioleoylphosphatidylcholine, 5 mM MgCl2, 5 mM MnCl2, 1% BSA, 15 mM KCl, 1 mM EGTA, 8 mM CHAPS, 10 μM C6-NBD-dihydro-ceramide and 17.5 μM UDP-galactose in a final reaction volume of 20 μL at 37° C. for 1 hour. The final concentration of DMSO was 0.5% in both compound-treated and mock-treated samples. Tween 80 (0.01%) was optionally added to the reaction mixture to help solubilize the compounds. Each individual reaction was diluted with 80 μL of methanol:acetronitrile (1:3) containing 5 μM N-docdecanoyl-NBD-galactosylceramide (internal standard) to stop the reaction. 200 μL H2O:acetonitile (1:1) was added to precipitate the protein. After sufficient mixing, the plates were centrifuged at 2469 g for 38 minutes, 200 μL of supernatant was transferred to a LC/MS 96-deep well plate and a second spin was performed at 2469 g for 10 minutes. The final supernatant was injected in triplicate for RapidFire/MS/MS analysis.
Quantitative Analysis Using the RapidFire/MS/MS Method:
The quantitative analysis of C6-NBD-dihydro-ceramide and C6-NBD-dihydro-galactosylceramide was performed on a Rapid Fire 360 high-throughput mass spectrometry system (Agilent Technologies, Palo Alto, Calif.) coupled with a API4000^+ triple quadrupole mass spectrometer (Applied Biosystems, Concord, Ontario, Canada). RapidFire software packages, including RapidFire Control panel, RapidFire UI and RapidFire Integrator (Agilent Technologies), were used to control the RapidFire instrument and to process data. Analyst 1.6.2 software packages (Applied Biosystems) were used to control the MS system and acquire MS data. […] of sample was loaded on a micro-scale C4 solid-phase extraction (SPE) cartridge (Agilent Technologies) and salts were removed using water supplemented with 0.1% formic acid at the flow rate of 1.5 mL/min for 3 sec. C6-NBD-dihydro-ceramide and C6-NBD-dihydro-galactosylceramide were co-eluted into the mass spectrometer using acetonitrile containing 0.1% formic acid at the flow rate of 1.0 mL/min for 3 sec. The total cycle time of one injection was 8 secs. The MS/MS detection was performed in ESI negative mode. The mass transition of C6-NBD-dihydro-galactosylceramide was m/z 752.6→678.6 using a −40 V collision energy, the mass transition of C6-NBD-dihydro-ceramide was m/z 590.6→115.8 using a −40 V collision energy and the mass transition of N-docdecanoyl-NBD-galactosylceramide was m/z 820.9→746.3 using a −45 V collision energy.
The C6-NBD-dihydro-galactosylceramide reading was normalized first by dividing the peak area of C6-NBD-dihydro-galactosylceramide by the peak area of the internal standard, N-docdecanoyl-NBD-galactosylceramide. IC50 values (see Table 1, where data ranges with one asterix (*) correspond to analysis using the RapidFire/MS/MS method, and data ranges with two asterixes (**) correspond to analysis using the RapidFire/MS/MS method with 0.01% Tween added) were generated from sigmoidal dose-response curves (variable slope) with GraphPad Prism software (GraphPad Software, Inc., San Diego, Calif.) using the normalized peak areas of C6-NBD-dihydro-galactosylceramide or the percent inhibition of C6-NBD-dihydro-galactosylceramide accumulation relative to DMSO control. […]
The molecule `N[C@@H]1CCN(C(=O)[C@@H](NS(=O)(=O)c2ccc3cc(OC4CCCC4)ccc3c2)C(F)(F)c2ccc(-c3ccc(Cl)cc3)cc2)C1` [Compound 149-1, N—((R)-3-((R)-3-aminopyrrolidin-1-yl)-1-(4′-chloro-[1,1′-biphenyl]-4-yl)-1,1-difluoro-3-oxopropan-2-yl)-6-(cyclopentyloxy)naphthalene-2-sulfonamide trifluoroacetate] had an IC50 of less than 1 µM.

`N[C@@H]1CCN(C(=O)[C@H](NS(=O)(=O)c2ccc3cc(OC4CCCC4)ccc3c2)C(F)(F)c2ccc(-c3ccc(Cl)cc3)cc2)C1` [Compound 149-2, N—((S)-3-((R)-3-aminopyrrolidin-1-yl)-1-(4′-chloro-[1,1′-biphenyl]-4-yl)-1,1-difluoro-3-oxopropan-2-yl)-6-(cyclopentyloxy) naphthalene-2-sulfonamide trifluoroacetate] showed an IC50 of 1 to 10 µM.

`N[C@H]1[C@@H]2CC[C@H]1CN(C(=O)[C@@H](NS(=O)(=O)c1ccc3cc(OC4CCCC4)ccc3c1)C(F)(F)c1ccc(Cl)cc1)C2` [Compound 150-1, N—((R)-3-((1R,5S,8R)-8-amino-3-azabicyclo[3.2.1]octan-3-yl)-1-(4-chlorophenyl)-1,1-difluoro-3-oxopropan-2-yl)-6-(cyclopentyloxy)naphthalene-2-sulfonamide trifluoroacetate] displayed an IC50 of less than 1 µM.

The molecule `N[C@H]1[C@@H]2CC[C@H]1CN(C(=O)[C@H](NS(=O)(=O)c1ccc3cc(OC4CCCC4)ccc3c1)C(F)(F)c1ccc(Cl)cc1)C2` [Compound 150-2, N—((S)-3-((1R,5S,8S)-8-amino-3-azabicyclo[3.2.1]octan-3-yl)-1-(4-chlorophenyl)-1,1-difluoro-3-oxopropan-2-yl)-6-(cyclopentyloxy)naphthalene-2-sulfonamide trifluoroacetate] registered an IC50 of 1 to 10 µM.

On to `O=C([C@@H](NS(=O)(=O)c1ccc(OCC2CCCCC2)cc1)C(F)(F)c1ccc(-c2ccc(Cl)cc2)cc1)N1CCNCC1` [Compound 151-1, (R)—N-(1-(4′-chloro-[1,1′-biphenyl]-4-yl)-1,1-difluoro-3-oxo-3-(piperazin-1-yl)propan-2-yl)-4-(cyclohexylmethoxy)benzenesulfonamide trifluoroacetate], for which the IC50 lay in the range of 1 to 10 µM.

`O=C([C@H](NS(=O)(=O)c1ccc(OCC2CCCCC2)cc1)C(F)(F)c1ccc(-c2ccc(Cl)cc2)cc1)N1CCNCC1` [Compound 151-2, (S)—N-(1-(4′-chloro-[1,1′-biphenyl]-4-yl)-1,1-difluoro-3-oxo-3-(piperazin-1-yl)propan-2-yl)-4-(cyclohexylmethoxy) benzenesulfonamide trifluoroacetate] had an IC50 of 30 to 100 µM.

The molecule `NC1CC2CCC(C1)N2C(=O)[C@@H](NC(=O)[C@H](O)c1ccc(OCC2CCCCC2)cc1)C(F)(F)c1ccc(-c2ccc(Cl)cc2)cc1` (stereo partly drawn) [Compound 152-1, (2R)—N-((2R)-3-(3-amino-8-azabicyclo[3.2.1]octan-8-yl)-1-(4′-chloro-[1,1′-biphenyl]-4-yl)-1,1-difluoro-3-oxopropan-2-yl)-2-(4-(cyclohexylmethoxy)phenyl)-2-hydroxyacetamide trifluoroacetate] had an IC50 of 1 to 10 µM.

Consider `NC1CC2CCC(C1)N2C(=O)[C@H](NC(=O)[C@@H](O)c1ccc(OCC2CCCCC2)cc1)C(F)(F)c1ccc(-c2ccc(Cl)cc2)cc1` (stereo partly drawn) [Compound 152-2, (2S)—N-((2S)-3-(3-amino-8-azabicyclo[3.2.1]octan-8-yl)-1-(4′-chloro-[1,1′-biphenyl]-4-yl)-1,1-difluoro-3-oxopropan-2-yl)-2-(4-(cyclohexylmethoxy)phenyl)-2-hydroxyacetamide trifluoroacetate], for which the IC50 fell in the range of 30 to 100 µM.

Regarding `NC1CC2CCC(C1)N2C(=O)[C@@H](NC(=O)[C@@H](O)c1ccc(OCC2CCCCC2)cc1)C(F)(F)c1ccc(-c2ccc(Cl)cc2)cc1` (stereo partly drawn) [Compound 152-3, (2S)—N-((2R)-3-(3-amino-8-azabicyclo[3.2.1]octan-8-yl)-1-(4′-chloro-[1,1′-biphenyl]-4-yl)-1,1-difluoro-3-oxopropan-2-yl)-2-(4-(cyclohexylmethoxy)phenyl)-2-hydroxyacetamide trifluoroacetate], the half-inhibitory concentration (IC50) lay in the range of 1 to 10 µM.

`NC1CC2CCC(C1)N2C(=O)[C@H](NC(=O)[C@H](O)c1ccc(OCC2CCCCC2)cc1)C(F)(F)c1ccc(-c2ccc(Cl)cc2)cc1` (stereo partly drawn) [Compound 152-4, (2R)—N-((2S)-3-(3-amino-8-azabicyclo[3.2.1]octan-8-yl)-1-(4′-chloro-[1,1′-biphenyl]-4-yl)-1,1-difluoro-3-oxopropan-2-yl)-2-(4-(cyclohexylmethoxy)phenyl)-2-hydroxyacetamide trifluoroacetate]: the IC50 lay in the range of 30 to 100 µM.

For `CCOc1cc(-c2ccc(C(F)(F)[C@H](NS(=O)(=O)c3ccc(OCC4CCCCC4)cc3)C(=O)N3CCC(N)CC3)cc2)ccc1Cl` [Compound 153-1, (R)—N-(3-(4-aminopiperidin-1-yl)-1-(4′-chloro-3′-ethoxy-[1,1′-biphenyl]-4-yl)-1,1-difluoro-3-oxopropan-2-yl)-4-(cyclohexylmethoxy)benzenesulfonamide trifluoroacetate], the IC50 lay in the range of 1 to 10 µM.

With `CCOc1cc(-c2ccc(C(F)(F)[C@@H](NS(=O)(=O)c3ccc(OCC4CCCCC4)cc3)C(=O)N3CCC(N)CC3)cc2)ccc1Cl` [Compound 153-2, (S)—N-(3-(4-aminopiperidin-1-yl)-1-(4′-chloro-3′-ethoxy-[1,1′-biphenyl]-4-yl)-1,1-difluoro-3-oxopropan-2-yl)-4-(cyclohexylmethoxy) benzenesulfonamide trifluoroacetate], the IC50 was 30 to 100 µM.

In turn, `CCOc1cc(-c2ccc(C(F)(F)[C@H](NS(=O)(=O)c3ccc4cc(OC5CCCC5)ccc4c3)C(=O)N3CCC(N)CC3)cc2)ccc1Cl` [Compound 154-1, (R)—N-(3-(4-aminopiperidin-1-yl)-1-(4′-chloro-3′-ethoxy-[1,1′-biphenyl]-4-yl)-1,1-difluoro-3-oxopropan-2-yl)-6-(cyclopentyloxy)naphthalene-2-sulfonamide trifluoroacetate] came in with an IC50 of 1 to 10 µM.

As for `CCOc1cc(-c2ccc(C(F)(F)[C@@H](NS(=O)(=O)c3ccc4cc(OC5CCCC5)ccc4c3)C(=O)N3CCC(N)CC3)cc2)ccc1Cl` [Compound 154-2, (S)—N-(3-(4-aminopiperidin-1-yl)-1-(4′-chloro-3′-ethoxy-[1,1′-biphenyl]-4-yl)-1,1-difluoro-3-oxopropan-2-yl)-6-(cyclopentyloxy)naphthalene-2-sulfonamide trifluoroacetate], the IC50 was 1 to 10 µM.
